From the supplement of paper PMC10307832

Tests used:
Assay in all cases: relative viability (nuclei count vs DMSO), 5 days (fraction); higher = more cells survive
MK-8033 + Trametinib = compound: Cn1cc(-c2cnc3ccc4ccc(CS(=O)(=O)NCc5ccccn5)cc4c(=O)c3c2)cn1 [MK-8033] + CC(=O)Nc1cccc(-n2c(=O)n(C3CC3)c(=O)c3c(Nc4ccc(I)cc4F)n(C)c(=O)c(C)c32)c1 [Trametinib] (partner 0.02 µM)
Outline: (§1)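 Cells from lung cancer lines were seeded into 1536-well plates and, one day later, dosed by pin tool. Treatments were either a single drug or a fixed dose of an anchor drug with five library-drug doses (not always all listed) in √10 steps. After 5 days, nuclei were stained in a one-step fixation (final 0.05% Triton X-100, 1% formaldehyde, 1 ug/ml Hoechst) and counted on 4× images, and relative viability is the treated-to-vehicle nuclei ratio, as the median of duplicate plates.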

Irinotecan + Dasatinib = compound: CCc1c2c(nc3ccc(OC(=O)N4CCC(N5CCCCC5)CC4)cc13)-c1cc3c(c(=O)n1C2)COC(=O)[C@]3(O)CC [Irinotecan] + Cc1nc(Nc2ncc(C(=O)Nc3c(C)cccc3Cl)s2)cc(N2CCN(CCO)CC2)n1 [Dasatinib] (partner 0.075 µM)
Outline: as §1

MK-8033 + Tozasertib = compound: Cn1cc(-c2cnc3ccc4ccc(CS(=O)(=O)NCc5ccccn5)cc4c(=O)c3c2)cn1 [MK-8033] + Cc1cc(Nc2cc(N3CCN(C)CC3)nc(Sc3ccc(NC(=O)C4CC4)cc3)n2)n[nH]1 [Tozasertib] (partner 0.1 µM)
Outline: as §1

MK-8033 + Vorinostat = compound: Cn1cc(-c2cnc3ccc4ccc(CS(=O)(=O)NCc5ccccn5)cc4c(=O)c3c2)cn1 [MK-8033] + O=C(CCCCCCC(=O)Nc1ccccc1)NO [Vorinostat] (partner 1 µM)
Outline: as §1

UMC-11
relative viability (MK-8033 + Trametinib; first compound 0.02 µM): 0.714 | relative viability (MK-8033 + Trametinib; first compound 0.06325 µM): 0.457 | relative viability (MK-8033 + Trametinib; first compound 0.2 µM): 0.604 | relative viability (MK-8033 + Trametinib; first compound 0.6325 µM): 0.643 | relative viability (MK-8033 + Trametinib; first compound 2 µM): 0.642 | relative viability (Irinotecan + Dasatinib; first compound 0.6325 µM): 0.422 | relative viability (Irinotecan + Dasatinib; first compound 2 µM): 0.372 | relative viability (Irinotecan + Dasatinib; first compound 6.325 µM): 0.232 | relative viability (Irinotecan + Dasatinib; first compound 20 µM): 0.104 | relative viability (MK-8033 + Tozasertib; first compound 0.02 µM): 0.201 | relative viability (MK-8033 + Tozasertib; first compound 0.2 µM): 0.193 | relative viability (MK-8033 + Tozasertib; first compound 0.6325 µM): 0.205 | relative viability (MK-8033 + Tozasertib; first compound 2 µM): 0.205 | relative viability (MK-8033 + Vorinostat; first compound 0.02 µM): 0.32 | relative viability (MK-8033 + Vorinostat; first compound 0.06325 µM): 0.345 | relative viability (MK-8033 + Vorinostat; first compound 0.2 µM): 0.46 | relative viability (MK-8033 + Vorinostat; first compound 0.6325 µM): 0.419 | relative viability (MK-8033 + Vorinostat; first compound 2 µM): 0.409
